Legend:
eEF2K [1] = biological target: T1, eEF2K (Homo sapiens, UniProt O00418); details: cited from earlier work; for eEF2K inhibition (reported, in words): literature
T1 sequence (O00418 1-725): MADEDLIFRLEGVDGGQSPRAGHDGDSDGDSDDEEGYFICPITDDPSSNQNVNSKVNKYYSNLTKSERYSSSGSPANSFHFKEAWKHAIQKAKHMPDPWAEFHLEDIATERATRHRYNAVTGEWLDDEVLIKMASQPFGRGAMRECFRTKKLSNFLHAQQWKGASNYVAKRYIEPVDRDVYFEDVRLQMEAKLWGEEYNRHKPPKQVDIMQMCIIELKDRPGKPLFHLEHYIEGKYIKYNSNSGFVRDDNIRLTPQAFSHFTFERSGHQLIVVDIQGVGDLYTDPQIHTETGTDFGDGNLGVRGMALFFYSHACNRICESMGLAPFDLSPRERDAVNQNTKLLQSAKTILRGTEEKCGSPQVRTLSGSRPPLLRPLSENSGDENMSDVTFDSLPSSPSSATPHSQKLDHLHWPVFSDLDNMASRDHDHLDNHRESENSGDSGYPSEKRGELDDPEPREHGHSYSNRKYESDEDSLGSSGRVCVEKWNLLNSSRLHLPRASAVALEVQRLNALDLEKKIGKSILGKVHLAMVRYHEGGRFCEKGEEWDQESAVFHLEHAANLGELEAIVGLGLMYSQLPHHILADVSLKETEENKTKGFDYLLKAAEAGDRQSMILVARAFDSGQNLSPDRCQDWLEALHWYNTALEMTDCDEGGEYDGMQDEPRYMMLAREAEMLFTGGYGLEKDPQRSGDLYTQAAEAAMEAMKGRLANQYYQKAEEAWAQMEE

eEF2K [2] = biological target: T1, eEF2K; assay: Western blot analysis of eEF2K inhibition (p-EF2 Thr56) in MDA-MB-231 cells; assay type: cell-based; details: for eEF2K inhibition potential (p-EF2 Thr56): MDA-MB-231 (TNBC) cells, 2.5 to 20 micromolar, 2 h; for eEF2K inhibition, reduced p-EF2 (Thr56) levels: MDA-MB-231 cells, 2.5 micromolar, 2 h treatment
Experimental: MeOH: distilled water by volume (%) (70:30) was used as the mobile phase for HPLC analysis for the inventive compound and the flow rate was set to 1 mL min^−1. Triple negative breast cancer (TNBC) cell lines (ER-, PR- and HER2-) MDA-MB-231 cells were purchased from the American Type Culture Collection (ATCC) (Manassas, VA, USA). MDA-MB-231 cells were cultured in Dulbecco's modified Eagle's medium (DMEM)/F12 supplemented with 10% FBS (Fetal Bovine Serum) and 100 U mL^−1 penicillin and streptomycin. Specific antibodies (p-EF2 (Thr56) (2331S), eEF2 (2332S), eEF2K (3692S) and GAPDH (5174S)) were purchased from Cell Signaling Technology (CST).
Western blot analysis was carried out according to previously reported studies to evaluate the eEF2K inhibition activity for the synthesized compounds. The synthesized compound was applied to MDA-MB-231 cells in the range of various concentrations from 2.5 to 20 micromolar for 2 h treatment. The expression levels of p-EF2 (Thr56) inhibition and eEF2K activity were determined by using related antibodies such as p-EF2 (Thr56), eEF2 and eEF2K. Glyceraldehyde 3-phosphate dehydrogenase (GAPDH) was used as a loading control.
To determine the effects of the synthesized compounds in inhibiting eEF2K activity in TNBC, MDA-MB-231 cells, we performed western blot analysis at concentrations ranging from 2.5 micromolar to 20 micromolar in a dose-dependent manner. eEF2K inhibition was detected by decreased phosphorylation levels of EF2 (p-EF2-Thr-56), a direct downstream substrate of the enzyme.

Row | SMILES | eEF2K inhibition (reported, in words) (eEF2K [1]) | eEF2K inhibition potential (p-EF2 Thr56) (eEF2K [2]) | eEF2K inhibition, reduced p-EF2 (Thr56) levels (eEF2K [2]) | eEF2K inhibition, reduced p-EF2 (Thr56) levels (eEF2K [2]; listed as compound of the invention) | concentration reported to inhibit eEF2K (eEF2K [1]; literature [44-46]) [µM]
1 | CCCCCCCCCCCCCCCCn1cc[n+](Cc2ccccc2)c1C.[I-] [NH125] | does not inhibit EF2K but rather increases eEF2 phosphorylation |  |  |  | 
2 | CCc1cccc2c3c([nH]c12)C(CC)(CC(=O)O)OCC3 (racemic) [Etodolac, (R,S)-2-[1,8-diethyl-1,3,4-tetrahydropyrano [3,4-b]indol-1-yl]acetic acid] |  | did not show any inhibition potential |  |  | 
3 | CCc1cccc2c3c([nH]c12)C(CC)(CC(=O)N1CCN(C)CC1)OCC3 (stereo not shown) [Inventive compound, 2-(1,8-diethyl-1,3,4,9-tetrahydropyrano [3,4-b]indol-1-yl)-1-(4-methylpiperazin-1-yl) ethan-1-one] |  | high inhibition potential | highest phospho-eEF2 (Thr56) inhibition | marked inhibition of eEF2K | 
4 | Cc1cc(C=C2C(=O)C=CC2=O)cc(C)c1O [TX1918] | did not show significant eEF2K inhibition |  |  |  | 10

— patent publication US20260049091A1, “2-(1,8-DIETHYL-1,3,4,9-TETRAHYDROPYRANO[3,4-B]INDOL-1-YL)-1-(4-METHYLPIPERAZIN-1-YL)ETHAN-1-ONE ETODOLAC DERIVATIVE AS EUKARYOTIC ELONGATION FACTOR 2 KINASE (EEF2K) INHIBITOR FOR TARGETED CANCER THERAPY” (BAHCESEHIR UNIVERSITESI, priority 2023, published 2026)
